{"source": "patent US6709830B2", "about": "“Methods for modulating the activation of a lymphocyte expressed G protein coupled receptor involved in cell proliferation, autoimmunity and inflammation” (The Regents of the University of California, priority 1997, dated 2004)", "key": {"G2A [1]": {"biological_target": "T1, G2A (Mus musculus, UniProt Q9Z282)", "T1 construct": "expressed in transfected cells; host or cells: MCF 10A (human breast epithelial cells, no endogenous G2A), plasmid pEXV3 G2A.GFP", "T1 sequence (Q9Z282 1-382)": "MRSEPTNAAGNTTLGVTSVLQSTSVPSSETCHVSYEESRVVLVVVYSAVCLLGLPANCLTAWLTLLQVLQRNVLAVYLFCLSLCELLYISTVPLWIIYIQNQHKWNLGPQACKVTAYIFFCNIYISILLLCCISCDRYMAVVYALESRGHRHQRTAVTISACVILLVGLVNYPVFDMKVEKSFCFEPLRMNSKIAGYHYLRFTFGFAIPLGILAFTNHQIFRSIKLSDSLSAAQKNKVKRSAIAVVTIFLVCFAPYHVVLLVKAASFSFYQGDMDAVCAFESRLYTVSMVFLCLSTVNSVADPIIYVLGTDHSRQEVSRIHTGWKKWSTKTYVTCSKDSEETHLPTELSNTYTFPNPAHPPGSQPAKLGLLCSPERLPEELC", "assay": "Radioligand binding assay with cell homogenates of HEK 293 G2A.GFP cells", "conditions": "HEK 293 G2A.GFP cell homogenate", "procedure": "To characterise the binding of LPC and SPC to G2A, we performed radioligand binding assays as described previously (Xu, Y, e al, Nature Cell Biology, 2: pp261-267, 2000). [^3H] 16:0 LPC and [^3H] SPC bound to cell homogenates from G2A expressing HEK 293 cells in a time-dependent manner and reached equilibrium after 60 minutes incubation at 4° C. (FIGS. 5A and B). […] LPC and [^3H] SPC. Binding of [^3H] LPC and [^3H] […] The maximum binding capacities for LPC and SPC were approximately 1,503 fmole/10^5 cells and 1,840 fmole/10^5 cells respectively.\nBinding assay HEK 293 GFP or HEK 293 G2A.GFP cells were serum starved for 20 hours and subsequently collected in PBS/EDTA. Pelleted cells were stored at −80° C. until use. Frozen cells (10^6 cells/ml) were homogenized in “binding buffer” containing 20 mM Tris-HCl pH 7.5, 100 mM NaCl, 15 mM NaF, 0.2 mM PMSF, 1 mM MgCl2 and 4 mg/ml fatty acid-free BSA in a tight-fit glass Dounce homogeniser. Assays were performed in 96-well plates in triplicate with 100 μl cell homogenate (equivalent to 10^5 cells/well). Varying amounts of [^3H] 16:0 LPC or [^3H] SPC were added to cell homogenates in 50 μl of binding buffer in the presence or absence of cold 16:0 LPC or SPC, or other competitors. Plates were incubated at 4° C. for 2 hours, or for the indicated times. Cell-bound [^3H] LPC or [^3H] SPC was collected onto a filter (Printed Filtermat A, Wallac, Gaithersburg, Md.) using an automated cell harvester (HARVESTER 96, Tomtec, Orange, Conn.). A pause wash programme (five cycle washes) was used. Filters were presoaked in 1% polyethyleneimine (Sigma) to prevent nonspecific binding, dried, sealed in bags (Sample Bag, Wallac) with 4.5 ml Betaplate “Scint” scintillation cocktail (Wallac), and counted in a 1450 Microbeta Trilux Liquid Scintillation and Luminescence Counter (Wallac). Specific binding was calculated by subtraction of nonspecific binding (binding detected in the presence of 100-fold excess unlabelled lipid) from total binding."}, "G2A [2]": {"biological_target": "T1, G2A", "assay": "Calcium assay ([Ca2+]i, Fura-2) in G2A.GFP transfected MCF 10A cells", "type": "cell-based", "procedure": "MCF 10A cells were cultured in specialised glass-bottom dishes (Bioptech, Inc., Butler, Pa.) and loaded with Fura-2/AM ([…]; Molecular Probes) at 37° C. for 30 minutes in HEPES buffered saline (pH 7.4) containing 125 mM NaCl, 5 mM KCl, 1.2 mM MgSO4, 11 mM glucose, 1.8 mM CaCl2, 25 mM HEPES, 0.2% BSA. Loaded cells were washed, placed in HEPES buffeted saline without BSA, and incubated for 30 minutes at ambient temperature ensure dye hydrolysis by cytosolic esterases. Using a dual-wavelength spectrofluorometer (RFK-6002, Photon Technology Int'l, So. Brunswick, N.J.) coupled to an inverted fluorescence microscope (Olympus, IX-70, Lake Success, N.Y.), GFP-positive cells were identified using an excitation wavelength of 488 nm, a dichroic 505 nm long-pass and an emitter bandpass of 535 nm (Chroma Technology, Brattleboro, Vt.). [Ca^2+], measurements were performed on individual GFP-positive cells at excitation wavelengths of 340 nm and 380 nm, and an emission wavelength of 510 nm. Prior to data acquisition, background fluorescence (areas without cells) was measured and automatically subtracted from subsequent measurements. Agonists were diluted in HEPES buffered saline and solution changes accomplished by rapidly aspirating the buffer and replacing it with HEPES buffered saline containing the specific agonist. Fura-2 fluorescence signals (340 nm, 380 nm and the 340/380 ratio) originating from individual GFP-positive cells were continuously monitored at a sampling frequency of 25 Hz and collected using a software package from Photon Technology International (Felix™). Conversion of the 340 nm/380 nm ratio value into [Ca^2+]i was estimated by comparing the cellular fluorescence ratio with ratios acquired using Fura-2 (free acid) in buffers containing known Ca^2+ concentrations. [Ca^2+]i was then calculated as described by Grynkiewicz, et al (Grynkiewicz, G, et al, J Biol Chem, 260: pp3440-3450, 1985). All assays were performed in assay buffers containing 1 mM EGTA to exclude measurement of calcium influx.\nTo address whether G2A is a lysophospholipid receptor, we examined signalling events in cells ectopically expressing G2A as functional correlates of receptor activation. […] [Ca^2+]i measurements were performed in MCF 10A cells transfected with plasmids encoding green fluorescent protein (GFP) tagged G2A (pEXV3 G2A.GFP) (Kabarowski, J H S, et al, PNAS, 97: pp12109-12114, 2000) or GFP as described (Yan Xu and Derek S. Damron, Methods in Molecular Medicine, 39: Ovarian Cancer: Methods and Protocols, pp611-619, 2000). […] Similarly, dose-dependent responses of G2A.GFP transfected cells to SPC were observed, with an EC50 of approximately 0.4 μM (FIG. 4B). […] Responses to these agonists were not affected by G2A.GFP expression (FIG. 4A, middle and lower panels)."}}, "note": "“Also recorded” adds a separate entry of the source.", "data": [{"substance": "lysophosphatidylcholine [LPC]", "values": [{"measurement": "Kd", "setting": "G2A [1]; Scatchard analysis, saturation binding of [3H] 16:0 LPC or [3H] SPC, 4° C., read-out: dissociation constant (Kd)", "result": 65, "unit": "nM"}, {"measurement": "maximum binding capacity", "setting": "G2A [1]; saturation binding", "result": "approximately 1,503 fmole/10^5 cells"}, {"measurement": "EC50", "setting": "G2A [2]; G2A.GFP transfected MCF 10A cells, 1 mM EGTA in buffer, read-out: EC50 of dose-dependent increase in [Ca2+]i", "result": "~100", "unit": "nM"}, {"measurement": "transient increase in [Ca2+]i", "setting": "G2A [2]; G2A.GFP transfected MCF 10A cells, LPC 0.1 μM, SPC 0.1 μM, LPA 1 μM, PAF 0.1 μM, ATP 20 μM", "result": "induced a transient increase; also recorded: induce transient [Ca^2+], increases"}, {"measurement": "desensitisation to subsequent stimulation with LPC or SPC (1 μM)", "setting": "G2A [2]; pretreatment 5 minutes with LPC 1 μM or SPC 10 μM (b23 prints SPC 1.0 μM), G2A.GFP-transfected MCF 10A cells", "result": "induced homologous and heterologous desensitisation"}]}]}
